Here are results for 11 compounds from patent US20260022143A1, “Cyclic Peptide Inhibitors of IL-23” (JANSSEN PHARMACEUTICA NV, priority 2022, published 2026).

The structures appear in SMILES notation. pIC50: −log10 of the molar value. Starred links: 1 amine or outer side, 2 acyl side, 3 side chain; linkers in the order of their positions; H or OH if unused. Positions of bridges follow the written chain, without caps; N, C: chain ends. Non-standard residues stand in square brackets, D forms with d. Residues, ends and D or L forms follow the SMILES beside them. Groups on a side chain read outwards from the residue. *: point of attachment. Me3N+(CH2)2O(CH2)2O(CH2)2CO = C[N+](C)(C)CCOCCOCCC(=O)*; Trp(7-Me) = Cc1cccc2c(C[C@H](N)C(=O)O)c[nH]c12; PEG9 = NCCOCCOCCOCCOCCOCCOCCOCCOCCOCCC(=O)O; Phe(4-CH2NH2) = NCc1ccc(C[C@H](N)C(=O)O)cc1; Abu(4-yl) = O=C([C@H](CC[*:3])N[*:1])[*:2]; dLys(Me3) = C[N+](C)(C)CCCC[C@@H](N)C(=O)O; 3Pal(5-Me) = Cc1cncc(C[C@H](N)C(=O)O)c1; γGlu = O=C(O)[C@H](CCC(=O)[*:2])N[*:1]; 2Nal = N[C@@H](Cc1ccc2ccccc2c1)C(=O)O; AEF = NCCOc1ccc(C[C@H](N)C(=O)O)cc1; NMe3Pal = CN[C@@H](Cc1cccnc1)C(=O)O; dNMeY = CN[C@H](Cc1ccc(O)cc1)C(=O)O; 3Pal = N[C@@H](Cc1cccnc1)C(=O)O; Lys(Me) = CNCCCC[C@H](N)C(=O)O; NMeK = CN[C@@H](CCCCN)C(=O)O; Pen = CC(C)(S)[C@H](N)C(=O)O; αMeK = C[C@](N)(CCCCN)C(=O)O; Lauroyl = CCCCCCCCCCCC(=O)*; αMeC = C[C@](N)(CS)C(=O)O; Thp = NC1(C(=O)O)CCOCC1; X3 = C[N+](C)(C)CCCCC*; AEEA = NCCOCCOCC(=O)O; Sar = CNCC(=O)O

One data set deals with T1, IL-23R (Homo sapiens, UniProt Q5VWK5).
T1 construct: host or cells: HEK293
T1 sequence (Q5VWK5 24-629): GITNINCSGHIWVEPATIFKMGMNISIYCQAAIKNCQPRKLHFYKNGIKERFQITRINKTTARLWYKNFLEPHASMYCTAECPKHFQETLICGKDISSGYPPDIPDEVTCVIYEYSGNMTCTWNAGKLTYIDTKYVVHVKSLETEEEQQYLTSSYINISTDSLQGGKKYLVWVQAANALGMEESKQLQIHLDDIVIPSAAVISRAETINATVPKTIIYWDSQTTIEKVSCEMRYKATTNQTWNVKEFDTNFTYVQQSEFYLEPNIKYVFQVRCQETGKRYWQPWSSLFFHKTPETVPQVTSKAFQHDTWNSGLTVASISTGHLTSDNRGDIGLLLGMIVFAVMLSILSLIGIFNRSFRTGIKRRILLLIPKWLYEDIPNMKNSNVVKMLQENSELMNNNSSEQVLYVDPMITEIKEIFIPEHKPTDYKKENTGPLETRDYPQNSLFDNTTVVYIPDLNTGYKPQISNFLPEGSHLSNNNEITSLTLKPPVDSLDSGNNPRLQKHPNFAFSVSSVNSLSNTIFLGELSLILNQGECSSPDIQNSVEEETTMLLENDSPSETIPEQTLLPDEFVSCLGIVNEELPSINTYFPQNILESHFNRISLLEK
In words: IL23R Reporter Assay. Type of data set: cell-based. As to conditions: HEK293 cells containing IL-23R, IL-12RP1 and STAT-inducible firefly luciferase reporter; 10 ng/mL IL-23 (EC90); 5 h at 37° C.; read-out: IL23R Reporter Assay. (Reporter assays use an easily measured gene product as a stand-in for the process of interest.)
For `CC(=O)N[C@@H]1C(=O)N[C@@H](CC(=O)N(C)C)C(=O)N[C@@H]([C@@H](C)O)C(=O)N[C@@H](Cc2c[nH]c3c(C)cccc23)C(=O)N[C@@H](COCCOCC[N+](C)(C)C)C(=O)N[C@H](C(=O)N[C@@H](Cc2ccc(OCCOCCOCC[N+](C)(C)C)cc2)C(=O)N[C@@H](Cc2ccc3ccccc3c2)C(=O)NC2(C(=O)N[C@@H](CCCCN(C)C(C)=O)C(=O)N[C@@H](CC(N)=O)C(=O)N[C@@H](Cc3cccnc3)C(=O)N(C)CC(=O)N(C)C)CCOCC2)C(C)(C)SSC1(C)C` (relative stereo) [compound 267, MeCO-Pen(3)-N(N(Me)2)-T-7MeW-APEG2Ser(S*)-Pen(3)-APEG3F-2Nal-THP-K(NMeAc)-N-3Pya-Sar-CON(Me)2], the pIC50 was 8.38.
Same read-out and setting: next, `CC(=O)NCCCC[C@H](NC(=O)[C@](C)(CCCCN)NC(=O)[C@H](Cc1ccc2ccccc2c1)NC(=O)[C@H](Cc1ccc(OCCN)cc1)NC(=O)[C@H]1NC(=O)[C@H](Cc2ccc(CNC(C)=O)cc2)NC(=O)[C@H](Cc2c[nH]c3c(C)cccc23)NC(=O)[C@H]([C@@H](C)O)NC(=O)[C@H](CC(N)=O)NC(=O)[C@@H](NC(C)=O)C(C)(C)SSC1(C)C)C(=O)N[C@@H](CC(N)=O)C(=O)N[C@H](CCCCN)C(=O)N(C)[C@H](Cc1ccc(O)cc1)C(N)=O` [compound 23, MeCO-Pen(3)-N-T-7MeW-Paf(Ac)-Pen(3)-AEF-2Nal-aMeK-K(Ac)-N-k-NMeDTyr-CONH2] (Ac-[Pen]NT[Trp(7-Me)][Phe(4-CH2NH2)](Ac)[Pen][AEF][2Nal][αMeK]K(Ac)N[dK][dNMeY]-NH2; disulfide 1-6): 6.82; `CC(=O)NCCCC[C@@H]1NC(=O)[C@H](Cc2c[nH]c3c(C)cccc23)NC(=O)[C@H]([C@@H](C)O)NC(=O)[C@H](CC(N)=O)NC(=O)[C@@H](NC(=O)[C@@H](CCCNC(=N)N)NC(C)=O)C(C)(C)SSC(C)(C)[C@@H](C(=O)N[C@@H](Cc2ccc(OCCN)cc2)C(=O)N[C@@H](Cc2ccc3ccccc3c2)C(=O)NC2(C(=O)N[C@@H](CCC(=O)O)C(=O)N[C@@H](CC(N)=O)C(=O)N(C)[C@@H](Cc3cccnc3)C(N)=O)CCOCC2)NC1=O` [compound 36] (Ac-[dR][Pen]NT[Trp(7-Me)]K(Ac)[Pen][AEF][2Nal][Thp]EN[NMe3Pal]-NH2; disulfide 2-7 (inferred)): 6.03.
For `CC(=O)NCCCC[C@@H]1NC(=O)[C@H](Cc2c[nH]c3c(C)cccc23)NC(=O)[C@H]([C@@H](C)O)NC(=O)[C@H](CC(N)=O)NC(=O)[C@@H](NC(=O)[C@@H](CCCCNC(=O)CCOCCOCCOCCOCCOCCOCCOCCOCCOCCNC(C)=O)NC(C)=O)C(C)(C)SSC(C)(C)[C@@H](C(=O)N[C@@H](Cc2ccc(OCCN)cc2)C(=O)N[C@@H](Cc2ccc3ccccc3c2)C(=O)NC2(C(=O)N[C@@H](CCCCNC(C)=O)C(=O)N[C@@H](CC(N)=O)C(=O)N[C@@H](Cc3cccnc3)C(=O)N(C)CC(N)=O)CCOCC2)NC1=O` [compound 44] (Ac-[dK]([PEG9-Ac])[Pen]NT[Trp(7-Me)]K(Ac)[Pen][AEF][2Nal][Thp]K(Ac)N[3Pal][Sar]-NH2; disulfide 2-7 (inferred)), the pIC50 was 8.17.
Still for that read-out and setting: under `CC(=O)NCCCC[C@@H]1NC(=O)[C@H](Cc2c[nH]c3c(C)cccc23)NC(=O)[C@H]([C@@H](C)O)NC(=O)[C@H](CC(N)=O)NC(=O)[C@@H](NC(C)=O)C(C)(C)SSC(C)(C)[C@@H](C(=O)N[C@@H](Cc2ccc(OCCN)cc2)C(=O)N[C@@H](Cc2ccc3ccccc3c2)C(=O)NC2(C(=O)N[C@@H](CCC(=O)O)C(=O)N[C@@H](CC(N)=O)C(=O)N[C@@H](Cc3cccnc3)C(=O)N(C)CC(=O)N(C)C)CCOCC2)NC1=O` [compound 276] (Ac-[Pen]NT[Trp(7-Me)]K(Ac)[Pen][AEF][2Nal][Thp]EN[3Pal][Sar]-NMe2; disulfide 1-6 (inferred)) stands 7.26; under `CC(=O)N(C)CCCC[C@@H]1NC(=O)[C@H](Cc2c[nH]c3c(C)cccc23)NC(=O)[C@H]([C@@H](C)O)NC(=O)[C@H](CC(=O)N(C)C)NC(=O)[C@@H](NC(=O)CCOCCOCC[N+](C)(C)C)C(C)(C)SSC(C)(C)[C@@H](C(=O)N[C@@H](Cn2cc(CC[N+](C)(C)C)nn2)C(=O)N[C@@H](Cc2ccc3ccccc3c2)C(=O)NC2(C(=O)N[C@@H](CCCCN(C)C(C)=O)C(=O)N[C@@H](CC(N)=O)C(=O)N[C@@H](Cc3cccnc3)C(=O)N(C)CC(=O)N(C)C)CCOCC2)NC1=O` [compound 287, cPEG3aCO-Pen(3)-N(N(Me)2)-T-7MeW-K(NMeAc)-Pen(3)-Tzl(Ch)-2Nal-THP-K(NMeAc)-N-3Pya-Sar-CON(Me)2], 7.62.
On the same count and under the same terms, under `CCCCCCCCCCCC(=O)N[C@@H](CCC(=O)NCCOCCOCC(=O)NCCOCCOCC(=O)NCCCC[C@@H](C(N)=O)N(C)C(=O)[C@H](Cc1cccnc1)NC(=O)[C@H](CC(N)=O)NC(=O)[C@H](CCCCN(C)C(C)=O)NC(=O)C1(NC(=O)[C@H](Cc2ccc3ccccc3c2)NC(=O)[C@H](Cc2ccc(OCCCCC[N+](C)(C)C)cc2)NC(=O)[C@H]2NC(=O)[C@H](CCCCNC(C)=O)NC(=O)[C@H](Cc3c[nH]c4c(C)cccc34)NC(=O)[C@H]([C@@H](C)O)NC(=O)[C@H](CC(=O)N(C)C)NC(=O)[C@@H](NC(=O)CCOCCOCC[N+](C)(C)C)C(C)(C)SSC2(C)C)CCOCC1)C(=O)O` [compound 313, cPEG3aCO-Pen(3)-N(N(Me)2)-T-7MeW-K(Ac)-Pen(3)-TMAPF-2Nal-THP-K(NMeaC)-N-3Pya-NMeK(PEG2PEG2gEC12)-CONH2] ({Me3N+(CH2)2O(CH2)2O(CH2)2CO}-[Pen]D(NMe2)T[Trp(7-Me)]K(Ac)[Pen]Y(X3)[2Nal][Thp][Lys(Me)](Ac)N[3Pal][NMeK]([AEEA-AEEA-γGlu-Lauroyl])-NH2; disulfide 1-6) stands 8.38.

Test system in another data set: not listed separately
In words: Exposed Polar Surface Area (EPSA). The format is physicochemical. To be noted: SFC on Chirex 3014 column; sample 1 mM DMSO stock; read-out: EPSA. In short, it runs like this: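 Retention-based polarity: supercritical CO2 with 20 mM ammonium formate in MeOH (5–60%, 20%/min), Chirex 3014 column, 35 °C. Calibrated against 8 standards to give EPSA (Å^2); each sample measured twice.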
As to `CC(=O)NCCCC[C@@H]1NC(=O)[C@H](Cc2c[nH]c3c(C)cccc23)NC(=O)[C@H]([C@@H](C)O)NC(=O)[C@H](CC(N)=O)NC(=O)[C@@H](NC(=O)[C@@H](CCCNC(=N)N)NC(=O)CCOCCOCC[N+](C)(C)C)C(C)(C)SSC(C)(C)[C@@H](C(=O)N[C@@H](Cc2ccc(OCCCCC[N+](C)(C)C)cc2)C(=O)N[C@@H](Cc2ccc3ccccc3c2)C(=O)NC2(C(=O)N[C@@H](CCC(=O)O)C(=O)N[C@@H](CC(N)=O)C(=O)N[C@@H](Cc3cncc(C)c3)C(=O)N(C)CC(N)=O)CCOCC2)NC1=O` [compound 542, cPEG3aCO-r-Pen(3)-N-T-7MeW-K(Ac)-Pen(3)-TMAPF-2Nal-THP-E-N-5MePyridinAla-Sar-CONH2] ({Me3N+(CH2)2O(CH2)2O(CH2)2CO}-[dR][Pen]NT[Trp(7-Me)]K(Ac)[Pen]Y(X3)[2Nal][Thp]EN[3Pal(5-Me)][Sar]-NH2; disulfide 2-7), the EPSA is 180 A^2.
Same read-out and setting: under `CC(=O)NCCCC[C@@H]1NC(=O)[C@H](Cc2c[nH]c3c(C)cccc23)NC(=O)[C@H]([C@@H](C)O)NC(=O)[C@H](CC(N)=O)NC(=O)[C@@H](NC(C)=O)C(C)(C)SSC(C)(C)[C@@H](C(=O)N[C@@H](Cc2ccc(OCC[N+](C)(C)C)cc2)C(=O)N[C@@H](Cc2ccc3ccccc3c2)C(=O)NC2(C(=O)N[C@@H](CCCCNC(C)=O)C(=O)N[C@@H](CC(N)=O)C(=O)N[C@@H](Cc3cccnc3)C(=O)N(C)CC(N)=O)CCOCC2)NC1=O` [compound 561, MeCO-Pen(3)-N-T-7MeW-K(Ac)-pen(3)-AEF(NMe3)-2Nal-THP-K(Ac)-N-3Pya-Sar-CONH2] stands 163 A^2.
On the same count and under the same terms, next, `CC(=O)NCCCC[C@@H]1NC(=O)[C@H](Cc2c[nH]c3c(C)cccc23)NC(=O)[C@H]([C@@H](C)O)NC(=O)[C@H](CC(N)=O)NC(=O)[C@@H](NC(C)=O)C(C)(C)SSC(C)(C)[C@@H](C(=O)N[C@@H](Cc2ccc(OCC[N+]3(C)CCOCC3)cc2)C(=O)N[C@@H](Cc2ccc3ccccc3c2)C(=O)NC2(C(=O)N[C@@H](CCCCNC(C)=O)C(=O)N[C@@H](CC(N)=O)C(=O)N[C@@H](Cc3cccnc3)C(=O)N(C)CC(N)=O)CCOCC2)NC1=O` [compound 562, MeCO-Pen(3)-N-T-7MeW-K(Ac)-Pen(3)-MMoEF-2Nal-THP-K(Ac)-N-3Pya-Sar-CONH2]: 166 A^2; `CC(=O)NCCCC[C@@H]1NC(=O)[C@H](Cc2c[nH]c3ccccc23)NC(=O)[C@H]([C@@H](C)O)NC(=O)[C@H](CC(N)=O)NC(=O)[C@@H](NC(=O)[C@@H](CCCC[N+](C)(C)C)NC(C)=O)CCSC[C@@](C)(C(=O)N[C@@H](Cc2ccc(OCCN)cc2)C(=O)N[C@@H](Cc2ccc3ccccc3c2)C(=O)NC2(C(=O)N[C@@H](CCCCNC(C)=O)C(=O)N[C@@H](CC(N)=O)C(=O)N[C@@H](Cc3cccnc3)C(=O)N(C)CC(N)=O)CCOCC2)NC1=O` [compound 569, MeCO-k(Me)3-Abu(1)-N-T-W-K(Ac)-aMeC(1)-AEF-2Nal-THP-K(Ac)-N-3Pya-Sar-CONH2] (Ac-[dLys(Me3)][Abu(4-yl)]NTWK(Ac)[αMeC][AEF][2Nal][Thp]K(Ac)N[3Pal][Sar]-NH2; thioether 2-7): 173 A^2.
